Results taken from patent US12174172B2, “Method for evaluating the efficacy of a composition in reducing the effects of cancer therapeutics on skin” (Johnson & Johnson Consumer Inc., priority 2019, dated 2024).

System: SkinEthic Reconstructed Human Epidermis (RHE)
Assay: Skin barrier function: trans-epidermal water loss (TEWL) on reconstructed human epidermis
Assay type: cell-based
Details: SDS 0.5% topical
Description: The effect of drugs on the skin barrier function was assessed by measuring trans-epidermal water loss (TEWL) rates on SkinEthicTM Reconstructed Human Epidermis (RHE) model (Episkin, Lyon, France) using Tewitro® TW 24 (Courage+Khazaka electronic GmbH, Köln, Germany). This instrument allows 24 simultaneous measurements on RHE. TEWL was analyzed at 33° C. in an incubator. […] Petrolatum, a highly hydrophobic hydrocarbon, water-repelling and insoluble in water was used to block water evaporation at the RHE surface (negative control). […] DMSO was used in the same proportion in the vehicle. SkinEthicTM RHE (Episkin, Lyon, France), is an in vitro reconstructed human epidermis from normal human keratinocytes cultured on an inert polycarbonate filter at the air-liquid interface, in a chemically defined medium. This model exists at different stages of maturity. This model is histologically similar to in vivo human epidermis. See […].com/SkinEthic%20RHE. The Tewitro® TW 24 is a device that measures water evaporation from cultured tissue sets (wells in a plate with medium) in up to 24 wells simultaneously. See https://www.courage-[…].

Substance: sodium dodecyl sulfoxide [SDS]
- increase of the TEWL rate (day 1): 98%
- increase of the TEWL rate (day 2, afatinib 100 nM in the media): 77%
- increase of the TEWL rate (day 5, afatinib 100 nM in the media): 58%
- increase of the TEWL rate (day 7, afatinib 100 nM in the media): non-significant increase
